# Measurements published in publication PMC7457613 (bioRxiv, 2021).
# “And” between values parts separate entries of the source, which are not always exact repeats. Identical values can stand only once. Like-named read-outs stand apart in the source and are kept apart here.
# Tests used:
# [1] = tested on: SARS-CoV-2 USA-WA1/2020; assay: microbe, parasite or virus in culture; type: cell-based
# [2] = tested on: SARS-CoV-2 USA/NYU-VC-003/2020; assay: microbe, parasite or virus in culture; type: cell-based
# [3] = tested on: SARS-CoV-2 USA-WA1/2020; assay: Time-of-drug-addition assay in A549+ACE2 cells; type: cell-based; conditions: 12 hpi
# [4] = tested on: A549+ACE2 cells
# [5] = tested on: SARS-CoV-2; conditions: cited from earlier work
# [6] = tested on: SARS-CoV-2 USA-WA1/2020; type: cell-based; conditions: for SARS-CoV-2 infectious titers in apical washes: 10 μM basolateral, washes in 12 h increments up to 72 h; for number of SARS-CoV-2-N-expressing infected cells in HAEC: 10 μM, 72 h endpoint, immunofluorescence
# [7] = tested on: polarized human airway epithelial cultures (HAEC)
# [8] = tested on: BCi-NS1.1 cells; conditions: dose range up to 10 μM, 48 hours
# [9] = tested on: coronavirus 3CL^pro; conditions: cited from earlier work
# [10] = tested on: COVID-19; conditions: patients with more advanced infection, intravenous ref 55; cited from earlier work
# [11] = in vitro; conditions: human
# [12] = Severe acute respiratory syndrome coronavirus 2, A549-ACE2
SMILES,EC50 [1],protection of A549+ACE2 cells from virus-induced CPE [1],EC50 [2],EC90 [2],minimum treatment dose that led to undetectable infection levels [3],CC50 [4],protection of A549+ACE2 cells from ring syncytia formation (CPE) [1],SARS-CoV-2 infectious titers in apical washes [6],number of SARS-CoV-2-N-expressing infected cells in HAEC [6],adverse effects on morphology of HAEC (histology) [7],trans-epithelial resistance (TEER) over time [7],ATP levels as a measure of cell viability [8],further results
CC(C)C[C@H](NC(=O)OCc1ccccc1)C(=O)N[C@@H](CC1CCNC1=O)C(O)S(=O)(=O)[O-].[Na+] (some centres unmarked) [GC-376],623 nM and 696 nM,unable to protect cells from virus-induced CPE,529 nM,2730 nM,10 µM,> 10 µM,–,–,–,–,–,–,EC90 [1]: 4.55 µM and 5.25 µM; EC50 ([5]; Vero E6 cells ref 11): 900 nM
COc1cccc2[nH]c(C(=O)N[C@@H](CC(C)C)C(=O)N[C@@H](C[C@@H]3CCNC3=O)C(=O)CO)cc12 [PF-00835231],–,fully protected,184 nM and 326 nM,591 nM and 1170 nM,3 µM,> 10 µM,fully protected,viral titers below the limit of detection at most time points,number of infected cells significantly reduced,Neither drug caused measurable adverse effects on the morphology,did not observe this trend,did not detect a decrease in ATP,"change in antiviral efficacy when blocking MDR1 activity [1]: no changes in antiviral efficacy; change in antiviral efficacy when blocking MDR1 activity [6]: no changes in antiviral efficacy; effect of chemical inhibition of MDR1 on antiviral efficacy ([5]; Vero E6 cells ref 9, 14): significantly increased; EC50 ([5]; Vero E6 cells ref 9): 270 nM; inhibition of 3CL^pro protease activity [9]: potent inhibition"
CCC(CC)COC(=O)[C@H](C)N[P@](=O)(OC[C@H]1O[C@@](C#N)(c2ccc3c(N)ncnn23)[C@H](O)[C@@H]1O)Oc1ccccc1 [remdesivir],238 nM,–,238 nM,–,10 µM,–,fully protected,viral titers below the limit of detection at most time points,number of infected cells significantly reduced,Neither drug caused measurable adverse effects on the morphology,"negatively impacted TEER over time, albeit not statistically significantly","caused a reduction in ATP levels compared to carrier control, albeit not statistically significantly","EC50 [1, 12]: 442 nM; EC50 [2, 12]: 283 nM; EC90 [2, 12]: 589 nM; patients with benefit [10]: 68%; CC50 [11]: > 10 µM"
